assay: Log P by HPLC on reversed phase columns (EEC directive 79/831 Annex V.A8; methods [a], [b], [c]); type: physicochemical; settings: not given
Method: Measurement of Log P values was performed according to EEC directive 79/831 Annex V.A8 by HPLC (High Performance Liquid Chromatography) on reversed phase columns with the following methods: • ^[a] Log P value is determined by measurement of LC-UV, in an acidic range, with 0.1% formic acid in water and acetonitrile as eluent (linear gradient from 10% acetonitrile to 95% acetonitrile). • ^[b] Log P value is determined by measurement of LC-UV, in a neutral range, with 0.001 molar ammonium acetate solution in water and acetonitrile as eluent (linear gradient from 10% acetonitrile to 95% acetonitrile). • ^[c] Log P value is determined by measurement of LC-UV, in an acidic range, with 0.1% phosphoric acid and acetonitrile as eluent (linear gradient from 10% acetonitrile to 95% acetonitrile).
If more than one Log P value is available within the same method, all the values are given and separated by “+”.
Calibration was done with straight-chain alkan2-ones (with 3 to 16 carbon atoms) with known Log P values (measurement of Log P values using retention times with linear interpolation between successive alkanones). Lambda-max-values were determined using UV-spectra from 200 nm to 400 nm and the peak values of the chromatographic signals.

Row | LogP | SMILES
1 | 2.49^[a] | N#Cc1cncn1CC(O)(c1ccc(Cl)cc1)C1(Cl)CC1 (stereo not shown) [I-232]
2 | 1.94^[a] | OC(Cn1cncc1F)c1cnc(Oc2ccc(C(F)(F)F)cc2)cc1Br (stereo not shown) [I-122]
3 | 3.01^[a] | CC(C)(C)C(O)(Cn1cncc1C#N)c1cc(F)c(Cl)c(F)c1 (stereo not shown) [I-491]
4 | 2.94^[a] | CCCCC(O)(Cn1cncc1C#N)c1ccc(C(F)(F)F)cc1 (stereo not shown) [I-277]
5 | 2.63^[a] | CC(O)(Cn1cncc1Cl)c1ccc(Oc2ccc(Cl)cc2)nc1C(F)(F)F (stereo not shown) [I-180]
6 | 2.20^[a] | N#Cc1cncn1CC(O)(CC1CC1)c1cccc(F)c1F (stereo not shown) [I-517]
7 | 3.72^[a] | CC(C)(C)C(O)(C#CCC1CCCCC1)Cn1cncc1C#N (stereo not shown) [I-541]
8 | 2.38^[a] | N#Cc1cncn1CC(O)(c1cc(F)cc(Cl)c1)C1(F)CC1 (stereo not shown) [I-474]
9 | 3.85^[a] | CN(C)C(=O)OC(Cn1cncc1C#N)c1ccc(Oc2ccc(Br)cc2)cc1C(F)(F)F (stereo not shown) [I-92]
10 | 4.51^[a] | COC(C)(Cn1cncc1C#N)c1ccc(Oc2ccc(Br)cc2)cc1C(F)(F)F (stereo not shown) [I-296]
11 | 2.42^[a] | OC(Cn1cncc1F)c1cnc(Oc2ccc(OC(F)(F)F)cc2)cc1C(F)(F)F (stereo not shown) [I-121]
12 | 3.44^[a] | N#Cc1cncn1CC(O)c1ccc(Oc2ccc(I)cc2)cc1Cl (stereo not shown) [I-95]
13 | 3.02^[a] | OC(Cn1cncc1Br)c1ccc(Oc2ccc(Br)cc2)cc1C(F)(F)F (stereo not shown) [I-26]
14 | 3.25^[a] | CC(O)(Cn1cncc1C#N)c1ccc(Oc2ccc(C(F)(F)F)cc2)nc1C(F)(F)F (stereo not shown) [I-312]
15 | 2.73^[a] | CCC(C)C(O)(Cn1cncc1C#N)c1ccc(Cl)cc1 (single isomer, unassigned) [I-325]
16 | 3.59^[a] | CC(C)(C)C(O)(Cn1cncc1C#N)c1cc(Cl)c(Cl)c(Cl)c1 (stereo not shown) [I-546]
17 | 2.54^[a] | N#Cc1cncn1CC(O)(c1cc(F)c(F)c(Cl)c1)C1(F)CC1 (stereo not shown) [I-476]
18 | 1.92^[a] | NC(=S)c1cncn1CC(O)(c1ccc(Cl)cc1Br)C1(F)CC1 (stereo not shown) [I-505]
19 | 2.70^[a] | N#Cc1cncn1CC(O)c1ccc(Oc2ccccc2)cc1Cl (stereo not shown) [I-76]

Row | LogP | SMILES
20 | 3.03^[a] | CC(O)(Cn1cncc1Br)c1ccc(Oc2ccc(Br)cc2)cc1C(F)(F)F (stereo not shown) [I-192]
21 | 3.00^[a] | CCCCCCC(O)(Cn1cncc1C#N)C1(F)CC1 (stereo not shown) [I-399]
22 | 2.36^[a] | CC(O)(Cn1cncc1F)c1cnc(Oc2ccc(C(F)(F)F)cc2)cc1Br (stereo not shown) [I-243]
23 | 2.30^[a] | CC(O)(Cn1cncc1Br)c1ccc(Oc2ccc(Cl)cc2)cc1 (stereo not shown) [I-165]
24 | 2.23^[a] | COc1ccc(Oc2ccc(C(O)Cn3cncc3Cl)c(Cl)n2)c(Cl)c1 (stereo not shown) [I-16]
25 | 3.33^[a] | CC(=O)c1cncn1CC(C)(O)c1ccc(Oc2ccc(C(C)C)cc2)nc1C(F)(F)F (stereo not shown) [I-299]
26 | 3.73^[a] | CC(C)(C)c1ccc(C#CC(O)(Cn2cncc2C#N)C2(Cl)CC2)cc1 (stereo not shown) [I-317]
27 | 3.15^[a] | N#Cc1cncn1CC(O)c1cnc(Oc2ccc(C(F)(F)F)cc2)cc1C(F)(F)F (stereo not shown) [I-111]
28 | 2.80^[a] | N#Cc1cncn1CC(O)(c1ccc(Br)c(Cl)c1Cl)C1(F)CC1 (stereo not shown) [I-681]
29 | 4.10^[a] | OC(CCC1CCCC1)(Cn1cncc1C(F)(F)F)C1(Cl)CC1 (stereo not shown) [I-674]
30 | 4.51^[a] | CCOC(Cn1cncc1C#N)c1ccc(Oc2ccc(Cl)cc2)cc1Br (stereo not shown) [I-62]
31 | 2.84^[a] | OC(Cn1cncc1Br)c1ccc(Oc2ccc(Cl)cc2)cc1C(F)(F)F (stereo not shown) [I-29]
32 | 2.94^[a] | N#Cc1cncn1CC(O)(c1ccc(-c2ccccc2)cc1)C1(Cl)CC1 (stereo not shown) [I-280]
33 | 3.51^[a] | CC(O)(Cn1cncc1C#N)c1cnc(Oc2ccc(C(F)(F)F)cc2)cc1C(F)(F)F (stereo not shown) [I-251]
34 | 3.02^[a] | CC(O)(Cn1cncc1Cl)c1ccc(Oc2ccc(C(F)(F)F)cc2)cc1Cl (stereo not shown) [I-159]
35 | 2.67^[a] | N#Cc1cncn1CC(O)(c1ccc(Cl)cc1Cl)C1(Cl)CC1 (stereo not shown) [I-235]
36 | 2.52^[a] | CC(C)CC#CC(O)(CC1CC1)Cn1cncc1C#N (stereo not shown) [I-451]
37 | 4.25^[a] | CC(O)(Cn1cncc1C(F)(F)F)c1ccc(Oc2ccc(Cl)cc2)cc1Cl (stereo not shown) [I-183]

Further lines, the compound ahead of its results:

Row | SMILES | LogP
38 | N#Cc1cncn1CC(O)(c1ccc(Oc2ccccc2)cc1)C1(Cl)CC1 (stereo not shown) [I-281] | 3.19^[a]
39 | N#Cc1cncn1CC(O)(c1cc(Cl)cc(Cl)c1F)C1(F)CC1 (stereo not shown) [I-572] | 2.66^[a]
40 | CC(C)CC(O)(Cn1cncc1C#N)c1ccc(Cl)cc1 (stereo not shown) [I-285] | 2.70^[a]
41 | N#Cc1cncn1CC(O)(CC1CCCCC1)c1ccc(F)cc1F (stereo not shown) [I-466] | 3.44^[a]
42 | OC(Cn1cncc1Cl)c1ccc(Oc2ccccn2)cc1Cl (stereo not shown) [I-80] | 1.53^[a]
43 | N#Cc1cncn1CC(O)(c1c(F)ccc(Cl)c1F)C1(F)CC1 (stereo not shown) [I-587] | 2.28^[a]
44 | N#Cc1cncn1CC(O)(c1ccc(C2CC2)cc1Cl)C1(Cl)CC1 (stereo not shown) [I-332] | 2.88^[a]
45 | N#Cc1cncn1CC(O)(C#CCC(Cl)CCl)C1(F)CC1 (stereo not shown) [I-604] | 2.08^[a]
46 | N#Cc1cncn1CC(O)(c1c(F)cc(F)cc1F)C1(F)CC1 (stereo not shown) [I-518] | 2.07^[a]
47 | CC(C)(C)C(O)(Cn1cncc1C#N)c1ccc(F)cc1 (stereo not shown) [I-347] | 2.51^[a]
48 | CC(C)(C)CC(O)(Cn1cncc1C#N)c1ccc(C(F)(F)F)cc1 (stereo not shown) [I-272] | 3.35^[a]
49 | COc1ccc(Oc2ccc(C(C)(O)Cn3cncc3Cl)c(Cl)n2)c(Cl)c1 (stereo not shown) [I-163] | 2.30^[a]
50 | N#Cc1cncn1CC(O)(CC1CC1)c1ccc(Br)cc1Br (stereo not shown) [I-429] | 2.82^[a]
51 | CC(C)(C)C#Cc1ccc(C(O)(Cn2cncc2C#N)C2(Cl)CC2)c(F)c1 (stereo not shown) [I-653] | 3.79^[a]
52 | N#Cc1cncn1CC(O)(c1cc(F)c(F)c(Br)c1)C1(F)CC1 (stereo not shown) [I-471] | 2.58^[a]
53 | N#Cc1cncn1CC(O)(CC1CC1)c1ccc(F)c(Br)c1 (stereo not shown) [I-496] | 2.56^[a]
54 | CC(C)(C)C(O)(C=CCC1CCCCC1)Cn1cncc1C#N (stereo not shown) [I-673] | 4.05^[a]
55 | CCC(O)(Cn1cncc1C#N)c1ccccc1C(F)(F)F (stereo not shown) [I-329] | 2.27^[a]
56 | C[Si](C)(C)C=CC(O)(Cn1cncc1C#N)C1(F)CC1 (stereo not shown) [I-679] | 2.77^[a]
57 | O=C(Cn1cncc1F)c1ccc(Oc2ccc(Cl)cc2)nc1C(F)(F)F [IX-106] | 2.59^[a]
58 | N#Cc1cncn1CC(O)c1ccc(Oc2ccc(Br)cc2)cc1Br (stereo not shown) [I-47] | 3.33^[a]
59 | N#Cc1cncn1CC(O)(c1ccc(Cl)c(F)c1F)C1(F)CC1 (stereo not shown) [I-637] | 2.41^[a]
60 | OC(Cn1cncc1F)c1cnc(Oc2ccc(Cl)cc2F)cc1C(F)(F)F (stereo not shown) [I-113] | 2.35^[a]
61 | N#Cc1cncn1CC(O)c1ccc(Oc2ccc(Cl)cc2)cc1Cl (stereo not shown) [I-22] | 3.19^[a]

Row | SMILES | LogP
62 | CCOC(Cn1cncc1Br)c1ccc(Oc2ccc(Cl)cc2)cc1Br (stereo not shown) [I-56] | 3.99^[a]
63 | Cc1ccc(C(C)(O)Cn2cncc2C#N)cc1 (stereo not shown) [I-340] | 1.75^[a]
64 | N#Cc1cncn1CC(O)c1ccc(F)cc1 (stereo not shown) [I-117] | 1.37^[a]
65 | CC(O)(Cn1cncc1F)c1ccc(Oc2ccc(C(F)(F)F)nc2)nc1C(F)(F)F (stereo not shown) [I-290] | 2.06^[a]
66 | CCCC#Cc1ccc(C(O)(Cn2cncc2C#N)C2(Cl)CC2)c(F)c1 (stereo not shown) [I-652] | 3.48^[a]
67 | N#Cc1cncn1CC(O)c1ccc(Oc2ccc(Br)cc2)cc1C(F)(F)F (stereo not shown) [I-36] | 3.46^[a]
68 | CC1(C(O)(Cn2cncc2C#N)c2ccc(F)cc2)CC1 (stereo not shown) [I-450] | 2.19^[a]
69 | OC(Cn1cncc1C(F)(F)F)c1ccc(Oc2ccc(Cl)cc2)cc1F (stereo not shown) [I-90] | 3.4^8[a]
70 | N#Cc1cncn1CC(O)(C#Cc1ccccc1Cl)C1(Cl)CC1 (stereo not shown) [I-324] | 2.73^[a]
71 | C#CC(O)(Cn1cncc1C#N)C1(F)CC1 (stereo not shown) [I-654] | 1.11^[a]
72 | N#Cc1cncn1CC(O)(c1cc(Cl)c(Cl)cc1Cl)C1(F)CC1 (stereo not shown) [I-576] | 2.82^[a]
73 | CC(O)(Cn1cncc1Br)c1ccc(Oc2ccc(I)cc2)cc1Br (stereo not shown) [I-186] | 3.23^[a]
74 | N#Cc1cncn1CC(O)(c1ccc(C(F)(F)F)cc1Cl)C1CC1 (stereo not shown) [I-418] | 2.98^[a]
75 | N#Cc1cncn1CC(O)c1ccc(Cl)cc1 (stereo not shown) [I-112] | 1.53^[a]
76 | O=C(Cn1cncc1F)c1ccc(Oc2ccc(C(F)(F)F)nc2)nc1C(F)(F)F [IX-130] | 2.16^[a]
77 | CC(=O)c1cncn1CC(C)(O)c1ccc(Oc2ccc(C(F)(F)F)nc2)nc1C(F)(F)F (stereo not shown) [I-291] | 2.27^[a]
78 | OC(Cn1cncc1Cl)c1ccc(Oc2ccc(Cl)cc2)cc1Cl (stereo not shown) [I-01] | 2.64^[a]
79 | CC(C)(C)C(O)(Cn1cncc1C#N)c1cc(F)c(F)c(F)c1 (stereo not shown) [I-462] | 2.76^[a]
80 | OC(Cn1cncc1Cl)c1ccc(Oc2ccc(Cl)cc2)cc1Br (stereo not shown) [I-23] | 2.54^[a]
81 | N#Cc1cncn1CC(O)(c1cc(Br)cc(Br)c1)C1(F)CC1 (stereo not shown) [I-469] | 2.82^[a]
82 | CC(O)(Cn1cncc1Cl)c1cnc(Oc2ccc(Cl)cc2)cc1Cl (stereo not shown) [I-162] | 2.41^[a]
83 | N#Cc1cncn1CC(O)(c1cccc(Cl)c1F)C1(Cl)CC1 (stereo not shown) [I-553] | 2.40^[a]
84 | N#Cc1cncn1CC(O)(c1ccc(C#CC2CC2)cc1F)C1(Cl)CC1 (stereo not shown) [I-651] | 3.11^[a]
85 | CCOC(Cn1cncc1Br)c1ccc(Oc2ccc(Br)cc2)cc1Br (stereo not shown) [I-57] | 4.16^[a]

same assay, conditions: reversed phase HPLC column; method [a]: LC-UV, acidic range, 0.1% formic acid in water and acetonitrile as eluent (linear gradient from 10% to 95% acetonitrile)

Row | chromatographic logP | SMILES
86 | 2.86 | O=C(Cn1cncc1Br)c1ccc(Oc2ccc(Cl)cc2)cc1F [IX-46]
87 | 1.75 | N#Cc1cncn1CC(=O)c1ccc(F)cc1F [IX-87]
88 | 3.41 | O=C(Cn1cncc1Cl)c1ccc(Oc2ccc(OC(F)(F)F)cc2)c(Br)c1 [IX-10]
